In patent US12144788B2, “Visual cycle modulators” (CASE WESTERN RESERVE UNIVERSITY, priority 2017, dated 2024):

Key:
RPE65 = RPE65 (Bos taurus, UniProt Q28175); assay: in vitro retinoid isomerase activity assay with bovine RPE microsomes; conditions: for times more potent compared to emixustat (racemic): RPE65 inhibition, bovine RPE microsomes; for inhibition against retinoid isomerization: up to concentrations of 50 μM
Experimental: Primary amines were pre-incubated with bovine RPE microsomes at room temperature for 5 min, then all-trans-retinol was added and the mixtures were incubated at 37° C. All incubation mixtures were quenched by the addition of methanol after 1 h of incubation. Inhibition of RPE65 enzymatic activity was measured as a decline in 11-cis-retinol production.
Synthesized primary amine (1 μl in DMF, with the final concentration ranging between 50 nM and 50 μM) was added to 10 mM Bis-Tris propane/HCl buffer, pH 7.4, containing 150 μg RPE microsomes, 1% BSA, 1 mM disodium pyrophosphate, and 20 μM aporetinaldehyde-binding protein 1 (CRALBP). The resulting mixture was pre-incubated at room temperature for 5 min. Then, all-trans-retinol (1 μl in DMF, at a final concentration of 20 μM) was added. The resulting mixture was incubated at 37° C. for 1 h. The reaction was quenched by adding 300 μl methanol, and products were extracted with 300 μl hexanes. Production of 11-cis-retinol was quantified by normal-phase HPLC with 10% (v/v) EtOAc in hexanes as the eluent at a flow rate of 1.4 ml/min. Retinoids were detected by monitoring their absorbance at 325 nm and quantified based on a standard curve representing the relationship between the amount of synthetic 11-cis-retinol standard and the area under the corresponding chromatographic peak.
To test these structural predictions, we examined the inhibitory activity of the compounds against RPE65 activity in an in vitro retinoid isomerase assay using bovine RPE microsomes as the enzyme source.

Abca4−/−Rdh8−/− mice = assay: protection against light-induced retinal degeneration (OCT, ONL thickness); assay type: in vivo, mouse
Experimental: FIGS. 7(A-B) illustrate protective effects of MB compounds against light-induced retinal degeneration in Abca4^−/−Rdh8^−/− mice. Drugs were administrated at the indicated doses to 4-6 week-old Abca4^−/−Rdh8^−/− mice (weight ˜20 g) by oral gavage. After a 24 h dark adaptation, mice were exposed to 10,000 lux light for 30 min and then returned to a dark environment for 3 days. (A) Representative OCT images of mice treated with MB compounds. A dramatic decrease in the ONL indicates advanced retinal degeneration. The black scale beside the DMSO image represents 50 μm. (B) Retinal protective effects exerted by MB compounds as quantified by average ONL thickness. Only non-scattering ONL layers were measured. For images in which the ONL layer boundary was obscured due to light scattering, the ONL length was recorded as 0 μm. Error bars represent standard deviations; n=3-5 for each group.
(§1) Abca4^−/−Rdh8^−/− mice on a C57BL/6J background were generated as previously described. Male and female WT mice with C57BL/6J backgrounds were obtained from The Jackson Laboratory. Abca4^−/−Rdh8^−/− mice used in this study were homozygous for the Leu450 allele of Rpe65 as determined by a genotyping protocol published previously and free of Crb1/rd8 and rd/rd mutations Animals were housed either in the animal facility at the Case Western Reserve University School of Medicine, where they received a standard chow diet (LabDiet 5053) and were maintained under a 12-h light (˜300 lux) and 12-h dark cycle or at the Cole Eye Institute animal facility where they were. Mice were dark adapted overnight prior to all experiments. A cohort of Rdh8^−/−Abca4^−/− or C57BL/6J mice was used when they reached the age of 1 to 2 months, and both sexes were used evenly. All tested primary amines were suspended in 100 μl soybean oil with less than 10% (v/v) DMSO and were administered by oral gavage with a 22-gauge feeding needle. Experimental manipulations in the dark were done under dim red light transmitted through a Kodak No. 1 Safelight Filter (transmittance >560 nm).
After dark adaptation for 24 h, Abca4^−/−Rdh8^−/− mice with pupils dilated by 1% tropicamide were exposed to fluorescent light (10,000 lux; 150 W spiral lamp; Commercial Electric) for 30 min in a white paper bucket (Papersmith) and then kept in the dark for an additional 3 days. Development of retinal degeneration was then determined by ultra-high-resolution spectral domain OCT (SD-OCT; Bioptigen) and ERG as previously described.
To examine the ability of […] cause retinal damage in the absence of treatment with protective agents. Three days later retinas were imaged in vivo by optical coherence tomography, with preservation of outer nuclear layer thickness and light scattering properties serving as markers for retinal health. MB-001, which is capable of preventing light-induced retinal degeneration through both direct RPE65 inhibition as well as retinal sequestration served as a positive control for these experiments.

[1] = system: visual chromophore regeneration in C57BL6J mouse eyes; assay: visual chromophore recovery assay (ocular 11-cis-retinal by HPLC after bleach); assay type: in vivo; conditions: for visual chromophore regeneration: 10 μg/mouse oral gavage 24 h before light exposure (95% bleach), 6 h dark adaptation; for effect on 11-cis-retinal recovery / visual cycle function: 500 μg (0.5 mg/mouse) oral gavage 24 h before light exposure
Experimental: FIG. 4 illustrates inhibition of visual chromophore regeneration in C57BL6J mouse eyes by MB compounds. The MB drugs were administrated to mice by oral gavage 24 h prior to light exposure for 10 min. Then all mice recovered under darkness for 6 h.
as §1
After bright light exposure resulting in photoactivation of 95% of rhodopsin, mice were kept in the dark for 6 h. Then, the animals were euthanized and their eyes were collected and homogenized in 10 mM sodium phosphate buffer, pH 7.4, containing 50% methanol (v/v) and 40 mM hydroxylamine. The resulting mixture was extracted with 4 ml of hexanes.
Next, we tested the effects of the MB compound series on retinoid cycle function in the living mouse. […] After the light treatment, mice were allowed to dark adapt for 6 h before their ocular retinoid content was determined by HPLC. […] To examine the possibility that the lack of MB-008 efficacy at 24 h was due to insufficient concentrations resulting from a shorter elimination half-life or poorer bioavailability, we repeated the experiment with the mice subjected to light exposure 4 h after MB-008 administration. A 100 μg dose of MB-008 suppressed visual chromophore regeneration by ˜80%, supporting the idea that the retinal concentration of MB-008 could be sub-effective at the longer post-treatment light challenge.

C57BL/6J mice = assay: in vivo dark-adapted ERG recordings after bleach; design: species or system mouse; conditions: gavage 1 day before bleach, doses indicated effective by retinoid analysis
Experimental: FIG. 5 illustrates ERG responses of mice treated with visual cycle modulators. Oral gavage was used to administer vehicle or MB compounds to mice 24 h prior to 10 min light exposure followed by 6 h of dark adaptation. Dark-adapted ERGs were obtained to strobe flash stimuli.
C57BL/6J mice aged 1.5-4 months were anesthetized with ketamine (80 mg/kg) and xylazine (16 mg/kg) after overnight dark adaptation. Mydriatic eye drops were used to dilate the pupil (1% tropicamide; 2.5% phenylephrine). ERGs were obtained using an active electrode that contacted the corneal surface; needle electrodes placed in the cheek and tail provided reference and ground leads, respectively. Strobe stimuli were presented to the dark-adapted eye in an LKC (Gaithersburg, MD) ganzfeld. Responses were amplified, averaged and stored using an LKC UTAS E-3000 signal averaging system.
Baseline dark-adapted ERGs were recorded from each mouse. After a minimum 1 day interval, MB compounds or vehicle were administered by gavage at 9 a.m. The next morning, mydriatic eye drops were used to dilate the pupils and mice were then exposed to a 10-minute 10,000 lux bleach. Mice were dark-adapted for 6 hours, after which ERGs were recorded.
We next examined the impact of these compounds on retinal function, measured using the electroretinogram (ERG). FIG. 5 presents a family of dark-adapted ERGs measured 6 hours after mice underwent a 95% bleach presented 1 day following gavage administration of vehicle or MB compound molecules at doses indicated to be effective by retinoid analysis. […] In comparison, mice administered with MB compound molecules had had reduced amplitude ERGs indicative of incomplete bleaching recovery. […] In response to higher luminance stimuli, reproducible responses were observed. That these reflect dark-adapted cone-mediated responses is supported by their similarity to responses obtained from transducin KO mice which lack rod-mediated activity, while retaining normal cone-mediated responses, and have a very similar ERG phenotype.

[2] = identification of atRAL Schiff base conjugates with MB compounds in mouse eyes; assay type: in vivo; conditions: Abca4−/−Rdh8−/− mice, 50 mg/kg oral gavage, bright light exposure 10 min; mass spectrometry versus standards
Experimental: FIGS. 6(A-B) illustrate identification of retinal Schiff base conjugates in Abca4^−/− Rdh8^−/− mice treated with MB-005 and MB-006. Following drug administration, mice were exposed to intense light for 10 min. After a 30 min recovery under darkness, animals were sacrificed and retinoids were extracted from the eyes. (A, B) Shown in the top panels are selective ion chromatograms for MB-005-retinal conjugates (A, at m/z=572.6) and MB-006-retinal conjugates (B, at m/z=588.6). Panels on the bottom show the mass spectra of the peaks coinciding with the retention times of their authentic standards. The insets display the MS/MS fragmentation patterns of the two imines, which were identical to the corresponding standards.
MB-005 or MB-006 (50 mg/kg) were administrated by oral gavage to Abca4^−/−Rdh8^−/− mice 24 h prior to light exposure. After exposure to fluorescent light for 10 min, animals were euthanized and their eyes were collected and homogenized in acetonitrile. After centrifugation, the supernatant was concentrated to 400 μl under vacuum. […]
With the effects of these compounds on visual cycle function established we next sought to examine their ability to form retinal-Schiff base conjugates in vivo. […] Retinoids were extracted and analyzed by mass spectrometry. […]

[3] = 1 mg per mouse oral gavage 24 h before light

Sequence of RPE65 (Q28175 whole entry): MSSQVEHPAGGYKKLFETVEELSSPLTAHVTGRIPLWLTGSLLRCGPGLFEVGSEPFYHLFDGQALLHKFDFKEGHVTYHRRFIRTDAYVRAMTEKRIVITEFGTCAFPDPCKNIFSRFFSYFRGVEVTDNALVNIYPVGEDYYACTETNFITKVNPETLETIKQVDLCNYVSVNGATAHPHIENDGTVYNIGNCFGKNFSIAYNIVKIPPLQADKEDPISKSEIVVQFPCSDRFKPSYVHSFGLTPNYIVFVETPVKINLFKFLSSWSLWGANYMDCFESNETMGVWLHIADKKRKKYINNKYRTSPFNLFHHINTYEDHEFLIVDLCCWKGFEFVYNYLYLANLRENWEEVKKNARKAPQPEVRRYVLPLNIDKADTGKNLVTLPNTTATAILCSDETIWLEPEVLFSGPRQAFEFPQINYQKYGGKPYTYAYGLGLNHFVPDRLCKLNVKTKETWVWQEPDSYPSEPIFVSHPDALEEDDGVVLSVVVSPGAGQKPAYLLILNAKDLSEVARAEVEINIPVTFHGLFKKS

Row | IC50 (RPE65) [nM] | times more potent compared to emixustat (racemic) (RPE65) | inhibition against retinoid isomerization (RPE65) | Compound | visual chromophore regeneration [1] | dark-adapted ERG 6 hours after 95% bleach (C57BL/6J mice) | protection against light-induced retinal degeneration (Abca4−/−Rdh8−/− mice; [3]) | effect on 11-cis-retinal recovery / visual cycle function ([1]; 6 h dark) | other results
1 | 189 ± 31 | ~1.2 times | – | CCCC(CCO)COc1cccc(C(O)CCN)c1 (mixture of isomers) [MB-008, 3-((3-(3-Amino-1-hydroxypropyl)phenoxy)methyl)hexan-1-ol] | recovered visual chromophore to a level comparable to vehicle-treated mice | – | – | – | protection against light-induced retinal degeneration (Abca4−/−Rdh8−/− mice; doses as high as 0.25 mg, administered 24 h prior to the light challenge): poorly protective; effect of shortening the duration between administration and light challenge on protection (Abca4−/−Rdh8−/− mice; from 24 to 6 h): substantially improved the protective effects; protection against light-induced retinal degeneration (Abca4−/−Rdh8−/− mice; shorter time period (6 h), dose ten-times higher than that used for MB-004): full protection; suppression of visual chromophore regeneration ([1]; 100 μg dose, light exposure 4 h after administration): ~80%; suppression in visual cycle function ([1]; ten-fold higher dose than 10 μg, oral gavage 24 h before light exposure, 6 h dark): 30%
2 | – | – | minimal or no inhibition | CC1=C(COc2cc(C(C)C)cc(C(O)CCN)c2)C(C)(C)CCC1 (stereo not drawn) [MB-007, 3-Amino-1-(3-isopropyl-5-((2,6,6-trimethylcyclohex-1-en-1-yl)methoxy)phenyl)propan-1-ol] | – | – | no more protective than vehicle control | minimal effects | inhibition of 11-cis-retinal recovery (suppression of visual chromophore regeneration) ([1]; two-fold higher dose than 500 μg (1 mg per mouse), oral gavage 24 h before light exposure): ~50%

Continued, molecule first:

Row | Compound | IC50 (RPE65) [nM] | times more potent compared to emixustat (racemic) (RPE65) | inhibition against retinoid isomerization (RPE65) | visual chromophore regeneration [1] | dark-adapted ERG 6 hours after 95% bleach (C57BL/6J mice) | protection against light-induced retinal degeneration (Abca4−/−Rdh8−/− mice; [3]) | effect on 11-cis-retinal recovery / visual cycle function ([1]; 6 h dark) | other results
3 | CC1=C(COc2cccc([C@H](O)CCN)c2)C(C)(C)CCC1 [MB-001, reference compound] | – | – | – | – | responses to low luminance stimuli that were not different from background noise levels | – | – | protection against light-induced retinal degeneration (Abca4−/−Rdh8−/− mice; 50 μg oral gavage 24 h before light, positive control): fully protective
4 | CC(C)c1cc(OCC2CCCCC2)cc(C(O)CCN)c1 (stereo not drawn) [MB-006, 3-Amino-1-(3-(cyclohexylmethoxy)-5-isopropylphenyl)propan-1-ol] | – | – | minimal or no inhibition | – | less incomplete recovery | protective | strongly suppressed visual cycle function | protection against light-induced retinal degeneration (Abca4−/−Rdh8−/− mice; 0.5 mg per mouse oral gavage 24 h before light): not; visual chromophore production, % of the vehicle control ([1]; 500 μg oral gavage 24 h before light exposure): ~30%; visual chromophore production, % of the vehicle control ([1]; 1000 μg oral gavage 24 h before light exposure): ~20%; retinal Schiff base adducts in eye extracts [2]: contained compounds matching the expected molecular weight of the respective Schiff base adducts
5 | CCCC(CCC)COc1cccc([C@H](O)CCN)c1 [MB-004] | 106 ± 16 | approximately 2.2 times | – | dramatically suppressed visual chromophore regeneration | responses to low luminance stimuli that were not different from background noise levels | – | – | protective effect relative to MB-001 (Abca4−/−Rdh8−/− mice; 25 μg oral gavage 24 h before 10,000 lux light, OCT 3 days later): approximately 80%
